This is an account of results in ChEMBL document CHEMBL3769402, “Discovery of novel N,N-3-phenyl-3-benzylaminopropionanilides as potent inhibitors of cholesteryl ester transfer protein in vivo” (Bioorg Med Chem, 2016).

Data set [1] addresses T1, Cholesteryl ester transfer protein (Homo sapiens, UniProt P11597).
T1 sequence (P11597 whole entry): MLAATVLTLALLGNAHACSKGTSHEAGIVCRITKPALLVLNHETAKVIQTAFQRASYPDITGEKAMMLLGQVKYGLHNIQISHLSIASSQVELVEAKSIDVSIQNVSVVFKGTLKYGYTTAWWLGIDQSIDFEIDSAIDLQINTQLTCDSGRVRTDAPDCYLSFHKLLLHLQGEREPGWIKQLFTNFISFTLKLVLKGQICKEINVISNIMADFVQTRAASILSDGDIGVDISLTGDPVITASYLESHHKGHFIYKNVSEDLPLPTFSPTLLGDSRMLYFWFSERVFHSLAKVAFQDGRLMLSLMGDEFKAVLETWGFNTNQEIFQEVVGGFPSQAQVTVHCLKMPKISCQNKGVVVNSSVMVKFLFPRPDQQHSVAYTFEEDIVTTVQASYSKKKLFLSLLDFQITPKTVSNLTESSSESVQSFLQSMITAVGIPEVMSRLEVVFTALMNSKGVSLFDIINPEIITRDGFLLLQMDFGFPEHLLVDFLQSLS
The experiment in a line: Inhibition of full-length human recombinant CETP expressed in CHO cells by BODIPY-CE dye based fluorescence assay. Type of data set: cell-based.

In data set [2] the test system is Syrian golden hamster. The experiment in a line: Increase in HDL-cholesterol level in high cholesterol/lipid diet fed golden syrian hamster at 50 mg/kg/day, po for 4 weeks. The format is functional, Mesocricetus auratus.
Data set [3] relates to Syrian golden hamster. The experiment in a line: Increase in HDL-cholesterol level in high cholesterol/lipid diet fed golden syrian hamster at 20 mg/kg/day, po for 4 weeks. Type of data set: functional, Mesocricetus auratus.
Data set [4] has as its system Syrian golden hamster. The experiment in a line: Toxicity in golden syrian hamster assessed as mortality at 20 to 100 mg/kg/day, po for 4 weeks. Particulars: in vivo, 672 h. Type of data set: organism-based, Mesocricetus auratus.
The subject of data set [5] is Syrian golden hamster. The experiment in a line: Decrease in LDL-cholesterol level in high cholesterol/lipid diet fed golden syrian hamster at 20 mg/kg/day, po for 4 weeks. Type of data set: functional. Particulars: Mesocricetus auratus, 672 h.
The subject of data set [6] is Syrian golden hamster. The experiment in a line: Decrease in LDL-cholesterol level in high cholesterol/lipid diet fed golden syrian hamster at 50 mg/kg/day, po for 4 weeks. Type of data set: functional. Particulars: Mesocricetus auratus, 672 h.
Data set [7] deals with Syrian golden hamster. Description: Increase in HDL-cholesterol level in high cholesterol/lipid diet fed golden syrian hamster at 100 mg/kg/day, po for 4 weeks. Type of data set: functional, Mesocricetus auratus.
The test system of data set [8] is Syrian golden hamster. The experiment in a line: Decrease in LDL-cholesterol level in high cholesterol/lipid diet fed po dosed golden syrian hamster administered daily for 4 weeks. Type of data set: functional, organism-based. Conditions: Mesocricetus auratus.
Data set [9] deals with Syrian golden hamster. The experiment in a line: Increase in HDL-cholesterol level in high cholesterol/lipid diet fed po dosed golden syrian hamster administered daily for 4 weeks. The format is functional, organism-based. Particulars: Mesocricetus auratus.
Data set [10] has as its system CYP450. The experiment in a line: Drug metabolism in KM rat liver microsomes assessed as CYP450 mediated compound oxidation at 100 uM after 17.1 min by LC-MS/MS analysis in presence of NADPH. The format is ADME. Particulars: read-out: Drug metabolism. (In general: Liver microsomes are a subcellular fraction often used to study metabolism.)
Data set [11] concerns CYP450. Description: Drug metabolism in KM rat liver microsomes assessed as CYP450 mediated compound reduction at 100 uM after 17.1 min by LC-MS/MS analysis in presence of NADPH. The format is ADME. Particulars: read-out: Drug metabolism.
Data set [12] concerns Syrian golden hamster. The experiment in a line: Decrease in LDL-cholesterol level in high cholesterol/lipid diet fed golden syrian hamster at 100 mg/kg/day, po for 4 weeks. The format is functional. Particulars: Mesocricetus auratus, 672 h.

The structures appear in SMILES notation.

As usually defined, the IC50 is the concentration that gives 50% inhibition. As for `CCOC(=O)c1ccc(N2CCN(C(=O)CCN(Cc3ccc(C(F)(F)F)cc3)c3ccc(Cl)c(Cl)c3)CC2)cc1`, in data set [1], the IC50 stood at 18.2 µM. On the same count and under the same terms, the result for `CCOC(=O)c1ccc(NC(=O)CCN(Cc2ccc(C(F)(F)F)cc2)c2ccc(Cl)c(Cl)c2)cc1` reads 9.5 µM. As for `CCOC(=O)c1ccc(NC(=O)CCN(Cc2ccc(F)cc2)c2ccc(Cl)c(-c3ccccc3)c2)cc1`, the IC50 in data set [1] was found to be 2.7 µM. Still for that read-out and setting: the result for `CCOC(=O)c1ccc(N2CCN(C(=O)CCN(Cc3ccc(F)cc3)c3ccc(Cl)c(-c4ccccc4)c3)CC2)cc1` reads 2.9 µM; that for `CCOC(=O)c1ccc(NC(=O)CCN(Cc2cc(C(F)(F)F)cc(C(F)(F)F)c2)c2ccc(Cl)c(Cl)c2)cc1`, 5.4 µM. On the same count and under the same terms, the figure for `CCOC(=O)c1ccc(NC(=O)CCN(c2cc(Cl)cc(-c3ccccc3)c2)S(=O)(=O)c2ccc(F)cc2)cc1` is 2.3 µM; for `COc1ccc(N2CCN(C(=O)CCN(Cc3ccc(F)cc3)c3ccc(Cl)c(Cl)c3)CC2)cc1` it is 4.9 µM; for `CCOC(=O)c1ccc(N2CCN(C(=O)CCN(Cc3ccc(F)cc3)c3ccc(Cl)c(Cl)c3)CC2)cc1` it is 12.4 µM. On the same count and under the same terms, the figure for `CCOC(=O)c1ccc(N2CCN(C(=O)CCN(Cc3ccc(F)cc3)c3cccc(Oc4ccccc4)c3)CC2)cc1` is 0.69 µM. Regarding `COc1ccc(N2CCN(C(=O)CCN(Cc3ccc(F)cc3)c3ccc(Oc4ccccc4)cc3)CC2)cc1`, in data set [1], the half-inhibitory concentration (IC50) is more than 50 µM. Same read-out and setting: the result for `CCOC(=O)c1ccc(NC(=O)CCN(Cc2ccc(F)cc2)c2ccc(-c3ccccc3)cc2)cc1` reads 16.7 µM. For the compound `CCOC(=O)c1ccc(NC(=O)CCN(Cc2ccc(F)cc2)c2cccc(Oc3ccccc3)c2)cc1`, in [1], the IC50 was 0.24 µM. Turning to `CCOC(=O)c1ccc(NC(=O)CCN(c2ccc(Cl)c(-c3ccccc3)c2)S(=O)(=O)c2ccc(F)cc2)cc1`, the IC50 in data set [1] is 1.3 µM. The same measure, in the same setting: the result for `O=C(CCN(Cc1ccc(F)cc1)c1ccc(Cl)c(Cl)c1)Nc1ccc(C(=O)O)cc1` reads 9.1 µM. By inhibition in vivo is commonly meant the relative decrease from the control value, in per cent. Low values mean a weak effect, high ones a strong effect. `CCOC(=O)c1ccc(NC(=O)CCN(c2cccc(Oc3ccccc3)c2)S(=O)(=O)c2ccc(F)cc2)cc1`: the Activity was 34.7% in the data set on Syrian golden hamster [2]; 16.2% in the data set on Syrian golden hamster [3]; “Non-toxic” with Syrian golden hamster [4]; 48.2% with Syrian golden hamster [7]; “Dose-dependent effect” in the data set with Syrian golden hamster [9]. Also, the IC50 in data set [1] stood at 0.15 µM. Further, the inhibition in vivo at 20 mg/kg/day with Syrian golden hamster [5] amounted to 19.3%. In the data set on Syrian golden hamster [6], the inhibition in vivo at 50 mg/kg/day stood at 36.2%. Moreover, the inhibition entry with Syrian golden hamster [8] was “Dose-dependent effect”. In addition, the metabolised at 0.285 h, 100 µM with CYP450 [10] and in the data set with CYP450 [11] was 36% throughout. This compound yielded an inhibition in vivo at 100 mg/kg/day with Syrian golden hamster [12] of 45.8%.

As for `CCOC(=O)c1ccc(NC(=O)CCN(Cc2ccc(F)cc2)c2cc(Cl)cc(-c3ccccc3)c2)cc1`, the IC50 in [1] is 3.4 µM. Consider `CCOC(=O)c1ccc(NC(=O)CCN(Cc2ccc(F)cc2)c2ccc(Cl)c(Cl)c2)cc1`, for which, in data set [1], the IC50 came to 2 µM.

On to `CCOC(=O)c1ccc(N2CCN(C(=O)CCN(Cc3ccc(F)cc3)c3ccc(Oc4ccccc4)cc3)CC2)cc1`, for which the IC50 in data set [1] was 6.7 µM.
